Here are results for 2 compounds from patent US9897551B2, “Method for accelerated degradation of thermoplastics” (priority 2013, dated 2018).

Like-named read-outs stand apart in the source and are kept apart here.

The conditions of series [1]: values taken from literature references (footnote); cited from earlier work.
The nature of series [2]: pKa values of end-capping agents. Type of series: physicochemical. As to conditions: approximated based on the values of similar structures.

Broadly, the pKa is the negative logarithm of the acid dissociation constant.

Regarding `COc1ccc(O)cc1` [p-methoxyphenol], the pKa in series [1] is given as 10.4.
Regarding `CC(C)(c1ccccc1)c1ccc(O)cc1` [p-cumylphenol], the pKa in series [2] is 10.5.
